Key:
[1] = biological target: T1, ADSS (Mus musculus, UniProt P46664); assay: Dose-response of IMP levels in cell lysates of DIV21 neurons from WT mice; assay type: cell-based; settings: FIG. 20
T1 construct: endogenous in cells; host or cells: primary mouse neurons, DIV21 (WT in A3; WT and Kctd13Δ47 in A4)
Description: FIGS. 20A-B show IMP levels in cell lysates of DIV21 neurons from WT mice following treatment with D, L-alanosine or L-alanosine, or untreated (U).
16p11.2 deletion patient fibroblast samples were acquired from the Simons Foundation VIP collection. For comparison, fibroblasts from unaffected individuals were obtained from Mclean Hospital collection of primary fibroblasts (Cohen, Ongur, McPhee). Fibroblasts were grown in DMEM supplemented with 10% serum (Gibco). For metabolic experiments, 160,000 cells/well were plated in DMEM (Gibco) supplemented with 10% fetal bovine serum (Gibco) in 12 well plates. […]
Next, metabolic changes were determined between 16p11.2 deletion patient fibroblasts compared with control fibroblasts. […]
(§1) Raw data were processed using MultiQuant 1.2 software (AB SCIEX) for automated LC-MS peak integration. […] Internal standard peak areas were monitored for quality control, to assess system performance over time, and to identify any outlier samples requiring re-analysis. A pooled plasma reference sample was also analyzed after sets of 20 study samples as an additional quality control measure of analytical performance and to serve as reference for scaling raw LC-MS peak areas across sample batches. […]
Next, purine metabolites were assessed in cell lysates and supernatants of cultured neurons from wild-type and kctd13Δ47 mice. […]

[2] = biological target: T1, ADSS; assay: S-Ado levels in cultured neurons from kctd13Δ47 mice contacted with L-alanosine; assay type: cell-based; settings: increasing concentrations (0, 0.01, 0.1 μM), FIG. 22
Description: (§2) 16p11.2 deletion patient fibroblast samples were acquired from the Simons Foundation VIP collection. For comparison, fibroblasts from unaffected individuals were obtained from Mclean Hospital collection of primary fibroblasts (Cohen, Ongur, McPhee). Fibroblasts were grown in DMEM supplemented with 10% serum (Gibco). For metabolic experiments, 160,000 cells/well were plated in DMEM (Gibco) supplemented with 10% fetal bovine serum (Gibco) in 12 well plates. For neurons, 1 million primary mouse neurons/well were plated in 6 well plates and were extracted similar to fibroblasts as described below except volumes were doubled to accommodate the extra surface area.
Next, metabolic changes were determined between 16p11.2 deletion patient fibroblasts compared with control fibroblasts. For metabolite extraction, samples were collected from either cells or the cell media. […]
as §1

[3] = biological target: T2, ADSS (Homo sapiens, UniProt P30520); assay: LC-MS purine metabolite levels in human control fibroblast cell lysates after ADSS inhibition; assay type: cell-based; settings: human control fibroblasts, 12 hours, 10 mg/mL, FIG. 19
T2 construct: fibroblasts from unaffected individuals were obtained from Mclean Hospital collection of primary fibroblasts; endogenous in cells; host or cells: primary human control fibroblasts (McLean Hospital collection)
Description: as §2
Next, metabolic changes were determined between 16p11.2 deletion patient fibroblasts compared with control fibroblasts. For metabolite extraction, samples were collected from either cells or the cell media. Cell samples were extracted from cells grown in 12 well plates. Cell samples were extracted by washing cells once with 1 mL ice-cold PBS, transferring to dry ice, followed by adding 400 μL of 80% methanol (VWR) containing the internal standards inosine-^15N4, thymine-d4, and glycocholate-d4 (Cambridge Isotope Laboratories). Cells were then incubated for 15 minutes at −80° C., followed by scraping and transfer of the methanol and cells to a 1.5 mL tube. Cells were centrifuged (10 min, 9,000 g, 4° C.), and the supernatant was transferred to a new 1.5 mL tube. The pellet was extracted again with 50 μL of 80% methanol containing internal standards and centrifuged. The supernatant was then pooled with the previously collected methanol sample. Media supernatant samples (30 μL) were extracted using 120 μL of 80% methanol (VWR) containing the internal standards inosine-^15N4, thymine-d4, and glycocholate-d4 (Cambridge Isotope Laboratories). The samples were centrifuged (10 min, 9,000 g, 4° C.). The resulting supernatant was transferred to a new tube. Samples were stored at −80° C. until analysis.
A method using basic hydrophilic interaction chromatography (HILIC) separation and negative ionization mode MS detection was established on an LC-MS system consisting of an ACQUITY UPLC (Waters Inc.) coupled to a 5500 QTRAP triple quadrupole mass spectrometer (AB SCIEX). […]
as §1

[4] = test system: ADSS; assay: Western blot of ADSS protein levels in neurons after proteasome or Cullin inhibition; assay type: cell-based, mouse; settings: neurons from Kctd13Δ47 mice, treated 5 hours with 2 μM, FIG. 5
Source text: Protein lysates were generated from mouse neurons prepared from wildtype or Kctd13Δ47 mice. C57B6 timed pregnant females were euthanized following IACUC approved method. E18 embryos were collected and rapidly decapitated. Embryos were then washed in dissection media (Hibernate-E (Hib-E, Gibco) supplemented with 100 U/mL penicillin streptomycin (Pen/Strep, Gibco)). Brains were isolated, cortices were separated from the midbrain and meninges was removed from each cortex. Each cortex was cut into six pieces; five cortices were pooled for dissociation. To dissociate 5 cortices, one Papain kit (Worthington LK3176) was reconstituted in 5 mLs Hib-E and activated at 37° C. for 10 minutes. Following activation, DNAse I (Sigma) was added to a concentration of 10 μg/mL and filter sterilized using a 0.22 μm filter. Cortices were washed twice with 5 mLs of Hib-E and 5 mLs of activated papain/DNAseI was added to the cortices and incubated for 8 minutes at 37° C. Following digestion, cortices were washed three times with 10 ml Hib-E per wash. Cortices were then triturated 10-15 times with a P1000 pipette in 1 mL NBActive4 supplemented with 10 μg/mL DNAseI filter sterilized using a 0.22 μm filter. […] Cells were counted in a hemocytometer, diluted and plated at 1 million cells/well in a 6 well poly-D-lysine (Corning, Biocoat) or 6 million cells/10 cm poly-D-lysine plate (Corning, Biocoat). […]

T1 sequence (P46664 whole entry): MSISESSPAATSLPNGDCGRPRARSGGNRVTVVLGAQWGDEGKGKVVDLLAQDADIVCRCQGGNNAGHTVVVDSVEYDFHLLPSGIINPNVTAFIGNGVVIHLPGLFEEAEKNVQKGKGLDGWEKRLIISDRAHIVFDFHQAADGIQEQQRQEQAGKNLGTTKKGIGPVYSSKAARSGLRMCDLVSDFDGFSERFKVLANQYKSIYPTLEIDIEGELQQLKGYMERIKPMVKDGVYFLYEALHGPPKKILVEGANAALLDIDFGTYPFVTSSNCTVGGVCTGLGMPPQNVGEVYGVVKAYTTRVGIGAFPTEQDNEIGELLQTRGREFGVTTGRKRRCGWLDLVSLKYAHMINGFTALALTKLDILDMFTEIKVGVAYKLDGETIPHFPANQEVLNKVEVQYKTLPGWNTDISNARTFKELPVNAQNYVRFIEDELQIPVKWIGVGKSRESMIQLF
T2 sequence (P30520 whole entry): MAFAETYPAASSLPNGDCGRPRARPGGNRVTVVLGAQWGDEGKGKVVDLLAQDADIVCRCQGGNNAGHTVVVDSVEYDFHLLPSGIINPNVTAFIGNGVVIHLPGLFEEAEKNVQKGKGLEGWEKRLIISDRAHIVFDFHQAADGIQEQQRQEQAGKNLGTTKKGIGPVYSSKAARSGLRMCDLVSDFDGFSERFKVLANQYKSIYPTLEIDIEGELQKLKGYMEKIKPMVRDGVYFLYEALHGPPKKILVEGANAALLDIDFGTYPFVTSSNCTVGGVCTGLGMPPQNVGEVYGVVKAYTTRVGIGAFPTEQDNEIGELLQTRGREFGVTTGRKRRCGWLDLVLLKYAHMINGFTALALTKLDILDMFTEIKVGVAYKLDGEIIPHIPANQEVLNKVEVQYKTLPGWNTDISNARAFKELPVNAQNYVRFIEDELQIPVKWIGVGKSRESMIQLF

In the case of `N[C@@H](CN(O)N=O)C(=O)O` [L-alanosine, L-2-amino-3-(N-hydroxy-N-nitrosamino) propionic acid], the IMP levels [1] is reported as “dose-dependent increase”, the S-Ado levels [2] is reported as “decreased” and the “levels of ADP” value [3] is reported as “decreased”. The “levels of AMP” value [3] was “decreased”, the “levels of IMP” value [3] was “increased” and the “levels of aminoimidazole carboxamide ribotide (AICAR)” value ([3]; metabolite upstream of ADSS) was “not affected”.
`NS(=O)(=O)OC[C@@H]1C[C@@H](n2ccc3c(N[C@H]4CCc5ccccc54)ncnc32)C[C@@H]1O` [MLN4924] was tested, and the “change in ADSS levels” value [4] was “no change”.
With `NC(CN(O)N=O)C(=O)O` (racemic) [D,L-alanosine, 3-(Hydroxynitrosoamino)-D,L-alanine] the IMP levels [1] was “dose-dependent increase”.
With `CC(C)C[C@H](NC(=O)[C@H](Cc1ccccc1)NC(=O)c1cnccn1)B(O)O` [bortezomib] the “change in ADSS levels” value [4] was “no change”.

— patent publication US11273161B2, “Methods of treating autism spectrum disorders” (The Broad Institute, Inc., priority 2016, dated 2022)
